According to patent US5157052A, “Method for inhibiting IgE production” (priority 1990, dated 1992):

What was measured:
IgG1 = assay: Serum IgG1 in anti-IgD stimulated mice (two site sandwich ELISA, Assay B); assay type: in vivo, mouse (Balb/c female)
Method: (§1) Sera from mice treated with compounds in accordance with the method of the invention are analyzed for levels of IgG1, IgG2a, IgG3, and IgM.
Mouse IgG1 measurement by a two site sandwich ELISA is as follows. About 5 μg of rabbit anti mouse IgG (Organon-Teknika-Cappel, Malvern, Pa.) is attached to the wells of a NuncImmulon 96 well plate and IgG1 levels are determined in substantial accordance with Assay A except with the following changes. The IgG1 standard is purchased from Southern BioTech, Birmingham, Ala., and stored at 10 μg/ml in 2% NBS in PBS at 4° C. The standard curve is prepared by diluting the mouse IgG1 standard in 0.05% Tween-80 in PBS, and is linear between 3.9 and 250 ng/ml. Serum containing IgG1 is diluted 1/10,000 to 1/1,000,000 in 0.05% Tween 80-PBS, to place the measurement within the standard curve. Standard IgG1 (or diluted serum) is incubated at about 37° C. for 1 hour and the plates are washed with 0.05% Tween 80-PBS as described in Assay A. About a 1/3,000 dilution of Goat anti mouse IgG1 (Southern Biotech, Birmingham, Ala.) conjugated to alkaline phosphatase in 0.05% Tween 80-PBS is added to each well and incubated at about 37° C. for 60 minutes. The plate is washed and colorimetric substrate, prepared as described by the manufacturer (Alkaline Phosphatase Substrate System, KPL, Gaithersburg, Md.), is added and optical density and data analysis is performed in the same manner as Assay A.
(§2) Sera from the mice described in Example 13 are analyzed for the levels of IgG1, IgG2a, and IgG3 by Assays B, C, and D, respectively.
(§3) Two groups of 4 Balb/c female mice per group are injected with both 100 μg FF1-4D5 antibody and 100 μg H∂A1 antibody. One of these groups is a stimulated control designated Group B. On day 3 and 4, the other group is injected with 40 μg (±) methyl 11α, 16-dihydroxy-1-methyl-9-oxoprosta-4Z,13E-dien-1-oate. Another group is injected with only PBS as an unstimulated control (Group A). On day -1 and 8, 50-100 μl of serum is recovered and analyzed for IgE, IgG1 and IgG2a by Assays A, B, and C, respectively.
(§4) 3 groups of 4 Balb/c female mice per group are injected with both 100 μg FF1-4D5 antibody and 100 μg H∂A1 antibody on day 0. Group A is given no further treatment. On day 3 and 4, one group of mice is injected with 20 μg (±) methyl 2-[2-[3R-3α-hydroxy-2β-(4-hydroxy-4-methyl-1E-octenyl-5-oxo-1α-cyclopentyl]-methyl]cyclopropanebutanoate (Group B) and another group with 20 μg (±) methyl 2-[2-[3R-3α-hydroxy-2β-(4-hydroxy-4-methyl-1E-octenyl)-5-oxo-1α-cyclopentyl]ethyl]cyclopropanepropanoate (Group C) as in Example 13. On day -1 and 8, 50-100 μl of serum is recovered and analyzed for IgE, IgG1, IgG2a and IgG3 by Assays A, B, C and D, respectively. The selectivity of inhibition of IgE is shown in Table 12.
(§5) Three groups of 5 Balb/c female mice per group are injected with both 100 μg FF1-4D5 antibody and 100 μg H∂A1 antibody on day 0. Group A is a control with no further treatment. On day 3 and 4, the mice are injected with 20 μg (±) methyl 11α,16-dihydroxy-4,4,16-trimethyl-9-oxoprosta-13E-en-1-oate (Group B) or 20 μg (±) methyl 11α,16-dihydroxy-16-methyl-9-oxoprosta-3,5Z,13E-trien-1-oate (Group C) as in Example 13. On day -1 and 8, […] of serum is recovered and analyzed for IgE, IgG1, IgG2a, IgG3 and IgM by Assays A, B, C, D and E, respectively.

IgG2a = assay: Serum IgG2a in anti-IgD stimulated mice (two site sandwich ELISA, Assay C); assay type: in vivo, mouse (Balb/c female); conditions: for IgG2a ±: Table 12, day 8 (control 849)
Method: as §1
Measurement of mouse IgG2a by a two site sandwich ELISA is performed in substantial accordance with the teaching of Assay B except with the following changes. NuncImmulon II plates are used in this assay. The IgG2a standard is purchased from Southern Biotech. The standard curve is linear between 4-250 ng/ml. Serum containing IgG2a is diluted 1/6400 to 1/1,000,000. About a 1/6,000 dilution of goat anti mouse IgG2a (Southern Biotech) conjugated to alkaline phosphatase is used.
as §2, §3, §4, §5

[1] = Diarrheal effects in rats; conditions: rat, in vivo, po
Method: Briefly, adult Charles River male rats weighing 210-230 g were individually housed and fasted with water available ad libitum for 24 hours prior to the test. The animals (N=6-12) received logarithmically graded prostaglandin doses orally. Immediately after administration, the animals were returned to their cages, and diarrhea, if any, was assessed on an all or none basis for 8 hours after drug treatment. The ED50 and relative potency values were calculated by the logistic method of Berkson.

[2] = Table 12, 20 μg days 3 and 4, day 8 (control 10525)
[3] = 40 μg IP days 3 and 4, day -1 baseline before treatment
[4] = Table 14, 20 μg days 3 and 4, day 8 (control 21703)
[5] = Table 14, 20 μg days 3 and 4, day 8 (control 1246)

SMILES: CCCCC(C)(O)C/C=C/[C@H]1[C@H](O)CC(=O)[C@@H]1CCC1CC1CCC(=O)OC (relative stereo) [(±) methyl 2-[2-[3R-3α-hydroxy-2β-(4-hydroxy-4-methyl-1E-octenyl)-5-oxo-1α-cyclopentyl]ethyl]cyclopropanepropanoate]
- inhibition of IgG1 (IgG1; 20 μg days 3 and 4, Example 23): not IgG1, IgG2a or IgG3
- IgG1 ± SD (IgG1; [2]): 22573 ± 5690 µg/mL
- inhibition of IgG2a (IgG2a; 20 μg days 3 and 4, Example 23): not IgG1, IgG2a or IgG3
- IgG2a ± (IgG2a; 20 μg days 3 and 4): 840 ± 484 µg/mL

SMILES: CCCCC(C)(O)C/C=C/[C@H]1[C@H](O)CC(=O)[C@@H]1C/C=C\CCCC(=O)OC (mixture of isomers) [(±) methyl 11α,16-dihydroxy-16-methyl-9-oxoprosta-5Z,13E-dien-1-oate]
- TD50 at 8 h [1]: 0.173 mg/kg
- IgG1 ± SD (IgG1; 40 μg IP days 3 and 4, day 8): 15666 ± 2300 µg/mL
- IgG1 ± SD (IgG1; [3]): 175 ± 32 µg/mL
- IgG2a ± SD (IgG2a; 2 μg IP days 3 and 4, day 7 (control 139)): 114 ± 61 µg/mL
- IgG2a ± SD (IgG2a; 2 μg IP days 3 and 4, day 8 (control 554)): 277 ± 111 µg/mL
- IgG2a ± SD (IgG2a; 2 μg IP days 3 and 4, day 9 (control 923)): 1053 ± 256 µg/mL
- IgG2a ± SD (IgG2a; 2 μg IP days 3 and 4, day 11 (control 951)): 1124 ± 219 µg/mL
- IgG2a ± SD (IgG2a; 2 μg IP days 3 and 4, day -1 baseline before treatment): 25 ± 25 µg/mL
- IgG2a ± SD (IgG2a; 5 μg IP days 3 and 4, day 7): 133 ± 67 µg/mL
- IgG2a ± SD (IgG2a; 5 μg IP days 3 and 4, day 8): 481 ± 192 µg/mL
- IgG2a ± SD (IgG2a; 5 μg IP days 3 and 4, day 9): 1093 ± 245 µg/mL
- IgG2a ± SD (IgG2a; 5 μg IP days 3 and 4, day 11): 1540 ± 201 µg/mL
- IgG2a ± SD (IgG2a; 5 μg IP days 3 and 4, day -1 baseline before treatment): 58 ± 66 µg/mL
- IgG2a ± SD (IgG2a; 10 μg IP days 3 and 4, day 7): 107 ± 45 µg/mL
- IgG2a ± SD (IgG2a; 10 μg IP days 3 and 4, day 8): 276 ± 168 µg/mL
- IgG2a ± SD (IgG2a; 10 μg IP days 3 and 4, day 9): 855 ± 117 µg/mL
- IgG2a ± SD (IgG2a; 10 μg IP days 3 and 4, day 11): 1097 ± 289 µg/mL
- IgG2a ± SD (IgG2a; 10 μg IP days 3 and 4, day -1 baseline before treatment): 26 ± 7 µg/mL
- IgG2a ± SD (IgG2a; 20 μg IP days 3 and 4, day 7): 182 ± 105 µg/mL
- IgG2a ± SD (IgG2a; 20 μg IP days 3 and 4, day 8): 493 ± 187 µg/mL
- IgG2a ± SD (IgG2a; 20 μg IP days 3 and 4, day 9): 1170 ± 285 µg/mL
- IgG2a ± SD (IgG2a; 20 μg IP days 3 and 4, day 11): 2133 ± 862 µg/mL
- IgG2a ± SD (IgG2a; 20 μg IP days 3 and 4, day -1 baseline before treatment): 29 ± 9 µg/mL
- IgG2a ± SD (IgG2a; 40 μg IP days 3 and 4, day 7): 81 ± 12 µg/mL
- IgG2a ± SD (IgG2a; 40 μg IP days 3 and 4, day 8): 433 ± 314 µg/mL
- IgG2a ± SD (IgG2a; 40 μg IP days 3 and 4, day 9): 1177 ± 383 µg/mL
- IgG2a ± SD (IgG2a; 40 μg IP days 3 and 4, day 11): 1667 ± 675 µg/mL
- IgG2a ± SD (IgG2a; [3]): 23 ± 1 µg/mL

SMILES: CCCCC(C)(O)C/C=C/[C@H]1[C@H](O)CC(=O)[C@@H]1C/C=C\C=CCC(=O)OC (relative stereo) [(±) methyl 11α,16-dihydroxy-16-methyl-9-oxoprosta-3,5Z,13-trien-1-oate]
- TD50 at 8 h [1]: 0.57 mg/kg
- inhibition of IgG1 (IgG1; 20 μg days 3 and 4, Example 25): not IgG1, IgG2a, IgG3 and IgM
- IgG1 ± SD (IgG1; [4]): 18320 ± 4695 µg/mL
- inhibition of IgG2a (IgG2a; 20 μg days 3 and 4, Example 25): not IgG1, IgG2a, IgG3 and IgM
- IgG2a ± SD (IgG2a; [5]): 1202 ± 338 µg/mL

SMILES: CCCCC(C)(O)C/C=C/[C@H]1[C@H](O)CC(=O)[C@@H]1CCCC(C)(C)CCC(=O)OC (mixture of isomers) [(±) methyl 11α,16-dihydroxy-4,4,16-trimethyl-9-oxoprost-13E-en-1-oate]
- TD50 at 8 h [1]: 0.185 mg/kg
- inhibition of IgG1 (IgG1; 20 μg days 3 and 4, Example 25): not IgG1, IgG2a, IgG3 and IgM
- IgG1 ± SD (IgG1; [4]): 22555 ± 5821 µg/mL
- inhibition of IgG2a (IgG2a; 20 μg days 3 and 4, Example 25): not IgG1, IgG2a, IgG3 and IgM
- IgG2a ± SD (IgG2a; [5]): 1019 ± 278 µg/mL

SMILES: CCCCC(C)(O)C/C=C/[C@H]1[C@H](O)CC(=O)[C@@H]1CC1CC1CCCC(=O)OC (relative stereo) [(±) methyl 2-[2-[3R-3α-hydroxy-2β-(4-hydroxy-4-methyl-1E-octenyl)-5-oxo-1α-cyclopentyl]methyl]cyclopropanebutanoate]
- inhibition of IgG1 (IgG1; 20 μg days 3 and 4, Example 23): not IgG1, IgG2a or IgG3
- IgG1 ± SD (IgG1; [2]): 14470 ± 2997 µg/mL
- inhibition of IgG2a (IgG2a; 20 μg days 3 and 4, Example 23): not IgG1, IgG2a or IgG3
- IgG2a ± (IgG2a; 20 μg days 3 and 4): 834 ± 235 µg/mL
